Data: paper PMC4837355, “Receptor residence time trumps drug-likeness and oral bioavailability in determining efficacy of complement C5a antagonists” (Scientific Reports, 2016)
“And” between values parts separate entries of the source, which are not always exact repeats. Equal values may be shown once. Read-outs that look alike come from different tables or passages of the source.

What was measured:
[1] = target: T1, C5aR (Rattus norvegicus, UniProt P97520); assay: C5aR-PA-induced rat paw oedema; format: in vivo, male Wistar rats; details: for Effect on paw swelling after 2 h / Reduction in paw swelling: 30 mg/kg p.o.; for Reduction in paw swelling: at 30 min post-injection of C5aR-PA
T1 construct: C5aR-mediated rat paw oedema was induced by intraplantar administration of 350 μg C5aR-PA per hind paw; from tissue; host or cells: living male Wistar rats (hind paw)
T1 sequence (P97520 1-352): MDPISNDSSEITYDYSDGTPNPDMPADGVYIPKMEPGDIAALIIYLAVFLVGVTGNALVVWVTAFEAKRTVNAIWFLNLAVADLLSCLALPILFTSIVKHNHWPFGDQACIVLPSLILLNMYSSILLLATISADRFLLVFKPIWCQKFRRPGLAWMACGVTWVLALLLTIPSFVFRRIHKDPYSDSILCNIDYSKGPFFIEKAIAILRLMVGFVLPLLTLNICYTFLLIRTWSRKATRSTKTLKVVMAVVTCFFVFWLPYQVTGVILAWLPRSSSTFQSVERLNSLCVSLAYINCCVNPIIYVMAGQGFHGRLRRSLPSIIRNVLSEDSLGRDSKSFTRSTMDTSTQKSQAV
Experimental: (§1) Paw oedema was induced in male Wistar rats by intraplantar administration of C5aR-PA (350 μg per paw in 100 μL of saline control). Paw swelling (% area change from baseline) was recorded at indicated timepoints. […] C5aR antagonist was administering as an intravenous dose (1 mg/kg via an implanted jugular vein catheter in 50:50 DMSO/saline) versus an oral dose (10 mg/kg in olive oil, via gavage). Plasma was collected at various time points and analyzed. Error bars are means ± SEM normalized to maximal swelling of saline control. *p < 0.05, **p < 0.01 and ***p < 0.001 by student t-test.
C5aR-mediated rat paw oedema was induced by intraplantar administration of 350 μg C5aR-PA per hind paw (Supplementary Fig. 5A). […] Male Wistar rats (6–8 wk, 250 ± 50 g) were bred at the Animal Resources Centre (Canning Vale, Australia) and housed post-shipment at the Australian Institute for Bioengineering and Nanotechnology (University of Queensland, Brisbane). […] After specific time-points, C5aR-PA was administered into the right hind paw pad (350 μg in 100 μL saline, i.pl). The left hind paw acted as a control, receiving saline only (100 μL). Rear paw thickness and width were measured at 1 h (and periodically over 4 h) post-injection using digital callipers (World Precision Instruments, Sarasota, FL, USA) and swelling was expressed as area (mm^2; thickness × width) and plotted as percentage change from baseline of each individual paw. […] Plasma was collected at various time points (0, 5, 15, 30 min, 1, 2, 3, 4, 6 and 8 h) from the jugular vein catheter and analyzed for antagonist concentrations using LCMS as described. The animal ethics committee of The University of Queensland approved all experiments according to NHMRC guidelines for the care and use of laboratory animals and in accordance with ARRIVE guidelines for reporting experiments involving animals. A total of N animals were used in each experiment as described.

[2] = tested on: C5a-induced neutropenia; parameters: method as in PMID 12384495; details: cited from earlier work
[3] = target: T2, C5aR (Homo sapiens, UniProt P21730); assay: Intracellular calcium release assay in HMDM against rhC5a; details: for IC50: HMDM calcium release
T2 sequence (P21730 1-350): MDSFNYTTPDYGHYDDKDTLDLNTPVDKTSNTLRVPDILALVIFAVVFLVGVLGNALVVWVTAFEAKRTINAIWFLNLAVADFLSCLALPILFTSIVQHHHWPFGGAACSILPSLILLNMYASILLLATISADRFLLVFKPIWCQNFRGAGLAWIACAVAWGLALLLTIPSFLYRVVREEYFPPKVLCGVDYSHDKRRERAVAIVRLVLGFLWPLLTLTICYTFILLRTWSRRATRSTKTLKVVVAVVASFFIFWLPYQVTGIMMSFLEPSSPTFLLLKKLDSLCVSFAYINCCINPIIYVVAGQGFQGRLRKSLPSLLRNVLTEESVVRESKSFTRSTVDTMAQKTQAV
Experimental: The concentration-response curves for calcium mobilization induced by rhC5a were determined in the presence of escalating concentrations of each of the three antagonists (Fig. 2D–F). […] Error bars are means ± SEM of three independent experiments (n = 3).
Figure 3 Dependence of antagonist potencies (IC50) on C5a concentration in human monocyte-derived macrophages. […] Calculated pIC50 ± SEM and IC50 values for the three C5aR antagonists are summarized in the table versus concentration of C5a. Error bars are means ± SEM of three independent experiments (n = 3).

[4] = target: T2, C5aR
Experimental: A scintillation proximity assay was used to measure the affinity of C5aR antagonists as described[39]. […] Radioligand binding was then analyzed using a Microbeta scintillation counter (PerkinElmer).

[5] = tested on: C5aR; details: inhibition of Ca2+ release versus 0.1nM rhC5a on neutrophils; read-out: Antagonist IC50; cited from earlier work
[6] = Pharmacokinetics and oral bioavailability in rats (LCMS of plasma); details: rat; for F (oral availability): 1 mg/kg i.v. versus 10 mg/kg p.o.
Experimental: as §1
Male Wistar rats (6–8 wk, 250 ± 50 g) were bred at the Animal Resources Centre (Canning Vale, Australia) and housed post-shipment at the Australian Institute for Bioengineering and Nanotechnology (University of Queensland, Brisbane). […] After specific time-points, C5aR-PA was administered into the right hind paw pad (350 μg in 100 μL saline, i.pl). The left hind paw acted as a control, receiving saline only (100 μL). Rear paw thickness and width were measured at 1 h (and periodically over 4 h) post-injection using digital callipers (World Precision Instruments, Sarasota, FL, USA) and swelling was expressed as area (mm^2; thickness × width) and plotted as percentage change from baseline of each individual paw. […] Plasma was collected at various time points (0, 5, 15, 30 min, 1, 2, 3, 4, 6 and 8 h) from the jugular vein catheter and analyzed for antagonist concentrations using LCMS as described. The animal ethics committee of The University of Queensland approved all experiments according to NHMRC guidelines for the care and use of laboratory animals and in accordance with ARRIVE guidelines for reporting experiments involving animals. A total of N animals were used in each experiment as described.
Supplementary Table 1. Pharmacokinetics parameters of C5aR antagonists in
aC5aR antagonist were administered 1 mg/kg i.v. and 10 mg/kg p.o.
Vdss; volume of distribution steady
Cmax; maximal plasma concentration reached
Tmax; time of maximal Cmax
F; Fraction of intact compound absorbed to plasma (oral availability)
Supplementary Table 2. Primer sequences for target genes.

[7] = in vivo; cited from earlier work
[8] = tested on: C5aR; parameters: method as in PMID 18595693; details: inhibition of Ca2+ release versus […] rhC5a on U937 cells; read-out: Antagonist IC50; cited from earlier work
[9] = target: T2, C5aR; assay: Washout residence time, calcium release in antagonist-pretreated HMDM; details: HMDM pre-treated 1 μM antagonist 1 h, washed, challenged with 3 nM C5a
From the text: Intracellular calcium release was induced in HMDM as described[40] and measured using a FLIPR instrument (Molecular Devices).

[10] = target: T2, C5aR; assay: In vitro migration (chemotaxis) assay of HMDM; format: cell-based; parameters: monocytes were isolated from buffy coats of anonymous donors; endogenous in cells; host or cells: primary human monocyte-derived macrophages (CD14+ monocytes from donor buffy coats, matured with M-CSF); details: antagonist 1 μM, 1 h then washed; 3 nM C5a for 16 h
From the text: Antagonists with a short residence time will be ineffective in this assay, because once the antagonist has dissociated from C5aR, C5a immediately binds and induces migration. […] Chemotactic index is expressed as fold change against control. […] Excess unbound antagonists were washed with serum-free medium and HMDM (0.1 × 10^6 cells/mL) then seeded into 5 μm Transwell inserts (Corning) creating a modified Boyden chamber. […] Migrated cells on the lower side of the membrane were stained with DAPI and counted. The chemotactic index was expressed as fold change versus control.

[11] = target: T2, C5aR; assay: C5a-induced inflammatory gene expression in HMDM (real-time PCR); details: 1 μM antagonist, 10 nM C5a at 16 h post-antagonist treatment
Experimental: Real-time PCR analyses were conducted to further check the effect of residence time in other assays. […] Gene expression was measured by real-time PCR, normalized against 18S and converted to fold change relative to control.
RNA was extracted from cells using ISOLATE II RNA Kit (Bioline) following manufacturer’s instructions. Real-time PCR was performed using 7900HT real-time with SYBR® Green PCR master mix (Applied Biosystems) and primers. Relative gene expression was normalized against 18S rRNA expression and expressed as fold change against control samples.

[12] = male, Wistar, plasma, intravenous, 1 mg/kg
[13] = male, Wistar, plasma, iv, 1 mg/kg
[14] = male, Wistar, plasma, oral, 10 mg/kg
[15] = male, Wistar, plasma, po, 10 mg/kg

Structure (SMILES)	Effect on paw swelling after 2 h [1]	Reduction in paw swelling [1] [%]	IC50 ([3]; IC50, C5a 3 nM) [nM]	IC50 ([3]; IC50, C5a 10 nM) [nM]	IC50 ([3]; IC50, C5a 30 nM) [nM]	IC50 ([3]; IC50, C5a 100 nM) [nM]	IC50 ([3]; IC50, C5a 300 nM) [nM]	IC50 ([3]; pIC50 ± SEM, C5a 1 nM) [nM]	Ki [4] [nM]	half-life ([6]; male, Wistar, plasma) [min]	Vd [6, 12] [L/kg]	clearance [6, 12] [mL/min/kg]	AUC [6, 13] [ng·h/mL]	Cmax [6, 14] [ng/mL]	AUC [6, 15] [ng·h/mL]	F (oral availability) [6]	also measured
COc1ccc2c(c1)C(C(=O)N(Cc1ccc(N(C)C)cc1)c1ccc(C(C)C)cc1)CCC2 (stereo not drawn) [W54011]	no longer effective	35	9	24	55	350	1460	3.98	79.4	124	18.3	82.8	212	484	1570	~ 74%	Block of C5aR-PA-induced paw swelling ([1]; 5 mg/kg per oral): did not block; Effect on C5aR-PA-induced paw swelling ([1]; 10 mg/kg p.o.): did not have much effect; Doses blocking C5a-induced gerbil neutropenia [2]: 3 to 30 mg/kg; IC50 ([3]; pIC50 ± SEM, C5a 3 nM): 7.94 nM; IC50 [5]: 3 nM; bioavailability [6, 15]: 74.3%
CC(=O)N[C@@H](Cc1ccccc1)C(=O)N[C@H]1CCCNC(=O)[C@H](CCCNC(=N)N)NC(=O)[C@H](Cc2c[nH]c3ccccc23)NC(=O)[C@@H](CC2CCCCC2)NC(=O)[C@@H]2CCCN2C1=O [3D53, Ac-Phe-[Orn-Pro-D-Cha-Trp-Arg]]	–	–	–	–	–	–	–	–	–	–	–	–	–	–	–	–	Tmax ([6]; male, Wistar, in vivo, po): 50 min; Cmax ([6]; in vivo): 17.5 ng/mL; Vd ([6]; in vivo): 4.1 L/kg; clearance ([6]; in vivo): 52.1 mL/min/kg; half-life ([6]; in vivo): 21.6 min; AUC ([6]; in vivo, iv, 1 mg/kg): 323 ng·h/mL; AUC ([6]; in vivo, po, 10 mg/kg): 76.6 ng·h/mL; Safety and tolerability [7]: safe and well tolerated
CCc1cccc(CC)c1-c1cc(OC(C)C)c2c(n1)CCCC2Nc1ccccc1CCO (stereo not drawn) [JJ47]	not much different to W54011	15	10	122	509	632	1070	1.58	316	43.2	3.5	41	410	127	501	12.2% and ~ 12%	IC50 [8]: 7 nM; Kb [3]: 5.01 nM; Antagonist mechanism ([3]; C5a concentration-response curves with escalating antagonist, HMDM): surmountable antagonists; IC50 ([3]; IC50, C5a 1 nM): 2 nM; Schild plot slope ([3]; against rhC5a, calcium release, HMDM): 0.94; Half-life t1/2 ± SEM (residence time on C5aR) [9]: 36 ± 12 min; Block of C5a-induced migration [10]: not effective antagonists; Block of C5a-mediated expression of TNF, IL1B, CCL3 and PTGS2 [11]: did not
